Measured values: PubChem BioAssay (NCI)
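Growth conditions: 96-well plates. Treatment: test compound, 48 hours, 5 concentrations. Analysis: linear interpolation between bracketing concentrations; unreached endpoints set to highest concentration. TGI: concentration producing complete growth inhibition.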

Tests used:
Test in all cases: NCI-60 cell line screen, 48 h
[1] = test system: SF-295 CNS
[2] = test system: LXFL 529 NSCLC
[3] = test system: SK-OV-3 ovarian
[4] = test system: UO-31 renal
[5] = test system: MALME-3M melanoma
[6] = test system: RXF 393 renal
[7] = test system: TK-10 renal
[8] = test system: XF 498 CNS
[9] = test system: SF-539 CNS
[10] = test system: SNB-78 CNS
[11] = test system: KM12 colon
[12] = test system: SW-620 colon
[13] = test system: SN12C renal
[14] = test system: SK-MEL-2 melanoma
[15] = test system: HCC-2998 colon
[16] = test system: LOX IMVI melanoma
[17] = test system: HCT-15 colon
[18] = test system: SR leukemia
[19] = test system: SK-MEL-5 melanoma
[20] = test system: DLD-1 colon
[21] = test system: NCI-H522 lung
[22] = test system: SK-MEL-28 melanoma
[23] = test system: HCT-116 colon
[24] = test system: OVCAR-8 ovarian
[25] = test system: ACHN renal
[26] = test system: OVCAR-3 ovarian
[27] = test system: HT29 colon
[28] = test system: IGROV1 ovarian
[29] = test system: U251 CNS
[30] = test system: CCRF-CEM leukemia
[31] = test system: EKVX NSCLC
[32] = test system: NCI-H23 lung
[33] = test system: SNB-75 CNS
[34] = test system: M19-MEL melanoma
[35] = test system: HL-60(TB) leukemia
[36] = test system: UACC-62 melanoma
[37] = test system: OVCAR-4 ovarian
[38] = test system: HOP-92 NSCLC
[39] = test system: A549 NSCLC
[40] = test system: K-562 leukemia
[41] = test system: KM20L2 colon
[42] = test system: M14 melanoma
[43] = test system: MOLT-4 leukemia
[44] = test system: HOP-62 NSCLC
[45] = test system: OVCAR-5 ovarian
[46] = test system: UACC-257 melanoma
[47] = test system: NCI-H460 lung
[48] = test system: SF-268 CNS
[49] = test system: DMS 114 small cell lung
[50] = test system: CAKI-1 renal
[51] = test system: SNB-19 CNS
[52] = test system: COLO 205 colon
[53] = test system: NCI-H226 lung
[54] = test system: 786-0 renal
[55] = test system: RPMI-8226 leukemia

Measured: TGI

CC(C)NC(=O)OCc1nnn2c1CCC2
not listed: [48] | [49] | [50] | [51] | [52] | [53] | [54] | [55]
> 100 µM: all other assays above

CO[C@H](C(=O)O[C@H]1C(=O)N2CC[C@@H]3CCC[C@H]1C32C)c1ccccc1 (some centres not stated)
not listed: [7] | [8] | [17] | [33] | [38]
> 100 µM: all other assays above
